Tests used:
Histamine H3 receptor [1] = molecular target: Histamine H3 receptor (Homo sapiens, UniProt Q9Y5N1); assay: Displacement of [3H]-NAMH from human histamine H3 receptor
Histamine H3 receptor [2] = molecular target: Histamine H3 receptor (Rattus norvegicus, UniProt Q9QYN8); assay: Displacement of [3H]-NAMH from rat histamine H3 receptor
[3] = Metabolic stability in mouse liver microsomes assessed as half life; assay type: ADME, Microsome
[4] = Metabolic stability in rat liver microsomes assessed as half life; assay type: ADME, Microsome
[5] = Metabolic stability in dog liver microsomes assessed as half life; assay type: ADME, Canis lupus familiaris, Microsome
[6] = Metabolic stability in human liver microsomes assessed as half life; assay type: ADME, Microsome
[7] = Volume of distribution in rat at 1 mg/kg, iv; assay type: ADME, organism-based; set-up: dose 1 mg/kg, route intravenous; conditions: in vivo
[8] = Cmax in rat at 5 mg/kg, po; assay type: ADME, organism-based; set-up: dose 5 mg/kg, route oral; conditions: in vivo
Rattus norvegicus [9] = assay: AUC (0 to 6 hrs) in rat at 5 mg/kg, po; assay type: ADME, organism-based, Plasma; set-up: time < 6 hr, dose 5 mg/kg, route oral; conditions: in vivo
[10] = Oral bioavailability in rat at 5 mg/kg; assay type: ADME, organism-based; conditions: in vivo
[11] = Drug uptake in rat brain at 10 mg/kg, ip after 1 hr; assay type: ADME, organism-based; set-up: dose 10 mg/kg, route intraperitoneal; conditions: read-out: Drug uptake
[12] = Ratio of drug level in brain to plasma in rat at 10 mg/kg, ip; assay type: ADME, organism-based; set-up: dose 10 mg/kg, route intraperitoneal; conditions: brain and plasma, read-out: BPR
[13] = Tmax in rat at 5 mg/kg, po; assay type: ADME, organism-based; set-up: dose 5 mg/kg, route oral; conditions: in vivo
[14] = Cmax in po dosed rat; assay type: ADME, organism-based; set-up: route oral; conditions: in vivo
Rattus norvegicus [15] = assay: AUC (0 to 6 hrs) in po dosed rat; assay type: ADME, organism-based, Plasma; set-up: time < 6 hr, route oral; conditions: in vivo
[16] = Oral bioavailability in rat; assay type: ADME, organism-based; conditions: in vivo
[17] = Drug uptake in ip dosed rat brain after 1 hr; assay type: ADME, organism-based; conditions: read-out: Drug uptake
[18] = Ratio of drug level in brain to plasma in ip dosed rat; assay type: ADME, organism-based; conditions: brain and plasma, read-out: BPR
[19] = Half life in rat at 1 mg/kg, iv; assay type: ADME, organism-based; set-up: dose 1 mg/kg, route intravenous; conditions: in vivo
[20] = Clearance in rat at 1 mg/kg, iv; assay type: ADME, organism-based; set-up: dose 1 mg/kg, route intravenous; conditions: in vivo
Cytochrome P450 1A2 = molecular target: T1, Cytochrome P450 1A2 (Homo sapiens, UniProt P05177); assay: Inhibition of CYP1A2; assay type: ADME
T1 sequence (P05177 whole entry): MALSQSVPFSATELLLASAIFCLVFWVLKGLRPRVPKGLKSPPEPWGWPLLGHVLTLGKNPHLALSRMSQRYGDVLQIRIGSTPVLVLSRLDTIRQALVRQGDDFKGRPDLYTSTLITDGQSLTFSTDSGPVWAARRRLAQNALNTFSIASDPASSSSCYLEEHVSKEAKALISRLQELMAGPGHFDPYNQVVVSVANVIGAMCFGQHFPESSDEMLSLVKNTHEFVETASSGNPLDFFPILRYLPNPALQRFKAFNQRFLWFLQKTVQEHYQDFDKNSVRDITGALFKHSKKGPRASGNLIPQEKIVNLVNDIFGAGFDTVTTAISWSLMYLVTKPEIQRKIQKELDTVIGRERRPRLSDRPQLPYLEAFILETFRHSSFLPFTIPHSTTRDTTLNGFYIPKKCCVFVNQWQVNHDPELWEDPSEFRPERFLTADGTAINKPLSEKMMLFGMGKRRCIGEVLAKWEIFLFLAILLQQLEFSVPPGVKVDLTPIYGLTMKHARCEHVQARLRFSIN

Cytochrome P450 2C19 = Cytochrome P450 2C19 (Homo sapiens, UniProt P33261); assay: Inhibition of CYP2C19; assay type: ADME
Cytochrome P450 2C9 = Cytochrome P450 2C9 (Homo sapiens, UniProt P11712); assay: Inhibition of CYP2C9; assay type: ADME
Cytochrome P450 2D6 = Cytochrome P450 2D6 (Homo sapiens, UniProt P10635); assay: Inhibition of CYP2D6; assay type: ADME
Cytochrome P450 3A4 = Cytochrome P450 3A4 (Homo sapiens, UniProt P08684); assay: Inhibition of CYP3A4; assay type: ADME
Chain of Cytochrome P450 3A4 (P08684 whole entry): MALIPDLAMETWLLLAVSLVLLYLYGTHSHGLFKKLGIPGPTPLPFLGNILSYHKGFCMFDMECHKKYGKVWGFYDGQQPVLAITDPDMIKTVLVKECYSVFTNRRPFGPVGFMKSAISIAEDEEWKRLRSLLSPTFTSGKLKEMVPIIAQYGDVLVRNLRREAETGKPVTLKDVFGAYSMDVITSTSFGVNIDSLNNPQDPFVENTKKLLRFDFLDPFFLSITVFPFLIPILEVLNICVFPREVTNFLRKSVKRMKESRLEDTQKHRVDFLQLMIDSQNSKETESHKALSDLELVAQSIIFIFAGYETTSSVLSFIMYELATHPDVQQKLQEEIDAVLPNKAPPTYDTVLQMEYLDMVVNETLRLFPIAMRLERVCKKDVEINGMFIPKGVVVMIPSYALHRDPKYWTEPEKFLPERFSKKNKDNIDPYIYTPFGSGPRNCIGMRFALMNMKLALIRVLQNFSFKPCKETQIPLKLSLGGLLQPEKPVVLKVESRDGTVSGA

Chain of Histamine H3 receptor (Homo sapiens, UniProt Q9Y5N1) (Q9Y5N1 whole entry): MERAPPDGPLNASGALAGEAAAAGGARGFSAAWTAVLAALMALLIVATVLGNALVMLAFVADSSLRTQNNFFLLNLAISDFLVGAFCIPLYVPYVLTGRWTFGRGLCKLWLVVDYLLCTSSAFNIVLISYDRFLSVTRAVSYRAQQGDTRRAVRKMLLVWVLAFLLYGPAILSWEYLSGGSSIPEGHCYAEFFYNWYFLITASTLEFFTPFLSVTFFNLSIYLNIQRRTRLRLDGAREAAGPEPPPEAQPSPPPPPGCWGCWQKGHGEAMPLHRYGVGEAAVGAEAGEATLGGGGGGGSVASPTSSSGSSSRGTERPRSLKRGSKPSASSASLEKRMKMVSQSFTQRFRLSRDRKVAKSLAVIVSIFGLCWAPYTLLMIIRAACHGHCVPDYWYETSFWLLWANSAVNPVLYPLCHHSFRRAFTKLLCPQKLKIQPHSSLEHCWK
Chain of Histamine H3 receptor (Rattus norvegicus, UniProt Q9QYN8) (Q9QYN8 whole entry): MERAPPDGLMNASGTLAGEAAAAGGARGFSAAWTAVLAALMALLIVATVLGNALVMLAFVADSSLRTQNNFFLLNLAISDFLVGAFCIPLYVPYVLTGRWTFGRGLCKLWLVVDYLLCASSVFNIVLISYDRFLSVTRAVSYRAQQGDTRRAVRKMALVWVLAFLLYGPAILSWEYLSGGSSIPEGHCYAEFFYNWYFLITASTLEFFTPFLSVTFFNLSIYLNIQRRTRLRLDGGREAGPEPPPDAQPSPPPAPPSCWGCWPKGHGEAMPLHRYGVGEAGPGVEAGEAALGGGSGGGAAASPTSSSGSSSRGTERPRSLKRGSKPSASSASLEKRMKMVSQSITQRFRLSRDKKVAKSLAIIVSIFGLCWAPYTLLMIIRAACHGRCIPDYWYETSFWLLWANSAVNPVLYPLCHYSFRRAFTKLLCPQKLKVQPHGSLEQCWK
Chain of Cytochrome P450 2C19 (P33261 whole entry): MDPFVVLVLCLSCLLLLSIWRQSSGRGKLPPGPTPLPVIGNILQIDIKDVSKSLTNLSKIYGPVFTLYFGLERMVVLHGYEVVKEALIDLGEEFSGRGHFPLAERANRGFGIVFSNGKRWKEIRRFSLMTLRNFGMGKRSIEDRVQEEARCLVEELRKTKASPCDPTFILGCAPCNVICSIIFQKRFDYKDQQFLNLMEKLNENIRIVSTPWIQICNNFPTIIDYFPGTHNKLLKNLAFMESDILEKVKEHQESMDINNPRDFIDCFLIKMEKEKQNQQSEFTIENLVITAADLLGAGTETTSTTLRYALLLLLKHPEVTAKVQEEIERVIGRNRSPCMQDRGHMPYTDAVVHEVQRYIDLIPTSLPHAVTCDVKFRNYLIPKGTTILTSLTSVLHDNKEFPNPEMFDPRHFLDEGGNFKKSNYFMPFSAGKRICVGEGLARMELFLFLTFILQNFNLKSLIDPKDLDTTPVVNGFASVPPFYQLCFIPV
Chain of Cytochrome P450 2D6 (P10635 whole entry): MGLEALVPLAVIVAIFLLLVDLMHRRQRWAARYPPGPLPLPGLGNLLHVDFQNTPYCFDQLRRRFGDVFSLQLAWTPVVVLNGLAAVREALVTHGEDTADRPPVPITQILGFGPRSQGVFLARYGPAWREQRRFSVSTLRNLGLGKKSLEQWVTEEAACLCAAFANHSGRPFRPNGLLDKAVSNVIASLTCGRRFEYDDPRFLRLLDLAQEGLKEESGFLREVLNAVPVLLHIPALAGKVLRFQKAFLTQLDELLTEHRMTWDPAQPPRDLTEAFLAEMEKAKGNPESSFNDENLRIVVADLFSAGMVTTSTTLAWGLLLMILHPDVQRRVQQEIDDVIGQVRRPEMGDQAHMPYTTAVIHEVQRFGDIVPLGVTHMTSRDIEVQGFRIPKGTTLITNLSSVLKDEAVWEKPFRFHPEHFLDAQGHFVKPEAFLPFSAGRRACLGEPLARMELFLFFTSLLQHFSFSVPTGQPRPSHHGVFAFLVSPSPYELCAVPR
Chain of Cytochrome P450 2C9 (P11712 whole entry): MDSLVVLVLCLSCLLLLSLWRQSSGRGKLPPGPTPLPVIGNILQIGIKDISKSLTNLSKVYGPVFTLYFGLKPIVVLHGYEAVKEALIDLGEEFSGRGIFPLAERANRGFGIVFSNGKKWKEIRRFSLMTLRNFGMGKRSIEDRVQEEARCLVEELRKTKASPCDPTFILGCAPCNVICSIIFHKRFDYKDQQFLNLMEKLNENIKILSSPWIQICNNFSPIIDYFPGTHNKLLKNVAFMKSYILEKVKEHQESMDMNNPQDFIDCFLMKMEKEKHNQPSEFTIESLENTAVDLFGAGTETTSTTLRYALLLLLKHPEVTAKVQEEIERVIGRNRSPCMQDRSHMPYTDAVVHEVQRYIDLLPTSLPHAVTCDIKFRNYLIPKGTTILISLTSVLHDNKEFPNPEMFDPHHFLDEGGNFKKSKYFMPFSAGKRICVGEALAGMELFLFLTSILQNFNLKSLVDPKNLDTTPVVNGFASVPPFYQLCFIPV

SMILES: Cn1nc(-c2ccc(N3CCN4CCC[C@H]4C3)cc2)ccc1=O
- Ki (Histamine H3 receptor [1]): 308 nM
- Ki (Histamine H3 receptor [2]): > 1000 nM

SMILES: O=C(c1ccc(-c2ccc(=O)[nH]n2)cc1)N1CCC[C@H]1CN1CCCC1
- Ki (Histamine H3 receptor [1]): 17 nM
- Ki (Histamine H3 receptor [2]): 46 nM

SMILES: C[C@@H]1CCCN1CCCOc1ccc(-c2ccc(=O)n(C)n2)cc1
- Ki (Histamine H3 receptor [1]): 1 nM
- Ki (Histamine H3 receptor [2]): 6 nM
- half-life [3]: > 40 min
- half-life [4]: > 40 min
- half-life [5]: > 40 min
- half-life [6]: > 40 min
- Vd [7]: 6.5 L/kg
- Cmax [8]: 123 ng/mL
- AUC (Rattus norvegicus [9]): 538 ng·h/mL
- bioavailability [10]: 28%
- concentration at 1 h [11]: 3440 ng/g
- Kp [12]: 3.9
- Tmax [13]: 60 min

SMILES: CC(C)N1CCN(c2ccc(-c3ccc(=O)n(C)n3)cc2)CC1
- Ki (Histamine H3 receptor [1]): 110 nM
- Ki (Histamine H3 receptor [2]): 419 nM

SMILES: Cn1nc(-c2ccc(OC3CCN(C4CCCC4)CC3)cc2)ccc1=O
- Ki (Histamine H3 receptor [1]): 3 nM
- Ki (Histamine H3 receptor [2]): 6 nM

SMILES: CN1CCCN(c2ccc(-c3ccc(=O)n(C)n3)cc2)CC1
- Ki (Histamine H3 receptor [1]): > 500 nM
- Ki (Histamine H3 receptor [2]): > 1000 nM

SMILES: CNC(=O)c1ccc(Oc2ccc3c(c2)CCN(C2CCC2)CC3)nc1 [GSK189254]
- Cmax [14]: 435 ng/mL
- AUC (Rattus norvegicus [15]): 2600 ng·h/mL
- bioavailability [16]: 51%
- concentration at 1 h [17]: 1660 ng/g
- Kp [18]: 1.4

SMILES: Cn1nc(-c2ccc(N3CCN(C4CCCC4)CC3)cc2)ccc1=O
- Ki (Histamine H3 receptor [1]): 93 nM
- Ki (Histamine H3 receptor [2]): 255 nM

SMILES: Cn1nc(-c2ccc(OC3CCN(C4CCC4)CC3)cc2)ccc1=O
- Ki (Histamine H3 receptor [1]): 3 nM
- Ki (Histamine H3 receptor [2]): 3 nM
- half-life [3]: 35 min

SMILES: O=C(c1ccc(-c2ccc(=O)n(-c3ccc(F)cc3)n2)cc1)N1CCC[C@H]1CN1CCCC1
- Ki (Histamine H3 receptor [1]): 16 nM
- Ki (Histamine H3 receptor [2]): 92 nM
- half-life [3]: > 40 min
- half-life [4]: > 40 min
- half-life [5]: > 40 min
- half-life [6]: > 40 min
- half-life [19]: 60 min
- Vd [7]: 1.1 L/kg
- clearance [20]: 12 mL/min/kg
- Cmax [8]: 180 ng/mL
- AUC (Rattus norvegicus [9]): 1020 ng·h/mL
- bioavailability [10]: 13%
- concentration at 1 h [11]: 529 ng/g
- Kp [12]: 0.7

SMILES: Cn1nc(-c2ccc(C(=O)N3CCN(C4CCCC4)CC3)cc2)ccc1=O
- Ki (Histamine H3 receptor [1]): 134 nM
- Ki (Histamine H3 receptor [2]): 186 nM

SMILES: Cn1nc(-c2ccc(C(=O)N3CCC[C@H]3CN3CCCC3)cc2)ccc1=O
- Ki (Histamine H3 receptor [1]): 10 nM
- Ki (Histamine H3 receptor [2]): 84 nM
- half-life [3]: > 40 min
- half-life [4]: > 40 min
- half-life [5]: > 40 min
- half-life [6]: > 40 min
- half-life [19]: 96 min
- Vd [7]: 2.5 L/kg
- clearance [20]: 18 mL/min/kg
- Cmax [8]: 412 ng/mL
- AUC (Rattus norvegicus [9]): 2180 ng·h/mL
- bioavailability [10]: 45%
- concentration at 1 h [11]: 454 ng/g
- Kp [12]: 0.37
- IC50 (Cytochrome P450 1A2): > 30000 nM
- IC50 (Cytochrome P450 2C19): > 30000 nM
- IC50 (Cytochrome P450 2C9): > 30000 nM
- IC50 (Cytochrome P450 2D6): > 30000 nM
- IC50 (Cytochrome P450 3A4): > 30000 nM

SMILES: CC(C)N1CCN(C(=O)c2ccc(-c3ccc(=O)n(C)n3)cc2)CC1
- Ki (Histamine H3 receptor [1]): 167 nM
- Ki (Histamine H3 receptor [2]): 185 nM

SMILES: Cn1nc(-c2ccc(C(=O)N3CCN4CCC[C@H]4C3)cc2)ccc1=O
- Ki (Histamine H3 receptor [1]): > 1000 nM
- Ki (Histamine H3 receptor [2]): > 1000 nM
